Test [1] deals with pancreatic adenocarcinoma cells. The following applies: in one study; cited from earlier work.
The test system is the same in test [2]. In words: DNA synthesis by bromodeoxyuridine (BrdU) incorporation into adenocarcinoma cells. The test is classed as cell-based, human. The following applies: 24 hours. The text has this:
To investigate whether these peptide hormones were inhibiting DNA synthesis and cell proliferation bromodeoxyuridine (BrdU) incorporation into the adenocarcinoma cells was utilized. BrdU was from BD Bioscience, San Jose, Calif. DNA synthesis and doubling of the genome take place during the synthetic or S phase. BrdU is a thymidine analog incorporated into nuclear DNA during the S phase of the cell cycle. Immunohistochemical methods use BrdU also as a marker of cell proliferation in cancer biology studies. After 24 hours in culture with 1 μM of LANP, vessel dilator, kaliuretic peptide, or ANP, respectively, or with no peptide hormone (i.e., control), BrdU in a final concentration of 10 μM in the cell culture medium was added for 45 minutes—which is time in which the cells are in the logarithmic phase of cell proliferation. For immunohistochemistry, a BrdU in situ detection kit from Becton Dickinson Immunocytochemistry Systems, San Jose, Calif., was utilized.
After the 45 minutes with BrdU, the adenocarcinoma cells were washed three times in phosphate buffered saline (PBS), five minutes each. This was followed by placing the cells in a −80° C. freezer for five minutes and then 100% methanol was added at 5° C. in order for the cells to become permeable enabling the anti-BrdU antibody to reach the nucleus of the cell. The cells were then washed again in PBS before 100 μl of biotinylated anti-BrdU antibody was added. The coverslips were then incubated in a humidified chamber for one hour. After this incubation, the slides were rinsed in PBS, two minutes each. Then streptavidin-horseradish peroxidase (HRP) was added to each coverslip. The cells were then incubated for 30 minutes. Streptavidin-HRP binds to biotinylated anti-BrdU and HRP is used with addition of diaminobenzidine (DAB) substrate system to visualize BrdU incorporation into the adénocarcinoma cells. After the 30 minute incubation with streptavidin-HRP, the coverslips were rinsed in PBS, two minutes each time, before adding the DAB substrate solution, which contains DAB chromagen and DAB buffer, for five minutes. The coverslips were then rinsed in water, two minutes each time before counterstaining the slides with hematoxylin for 60 seconds followed by a thorough rinsing in water for five minutes. The incorporation of the BrdU stain into the nucleus was then counted using a Nikon Inverted Diaphot-TMD Microscope (Tokyo, Japan). The number of stained nuclei was compared in the four peptide hormone groups to the positive control group. The negative control for these studies was provided by Becton Dickinson Immunocytochemistry Systems.
BrdU has an advantage over ^3H-thymidine incorporation in that it takes less time and provides high resolution.
Cyclic GMP and prostaglandin E2 are the two known mediators of all of the previously described biologic effects of these four peptide hormones. All four of these peptide hormones-induced vasodilation of vasculature is mediated by increased cyclic GMP concentrations via enhancing guanylate cyclase activity. […] ANPs effects in the kidney are thought to be mediated by cyclic GMP. Each of these peptide hormones increase cyclic GMP while simultaneously dilating vasculature. 8 bromo-cyclic GMP reproduces these vasodilatory effects. For the present investigation of the mechanism of these peptide hormones' ability to inhibit DNA synthesis in cancer cells, 8-bromoguanosine 3′,5′-cyclic monophosphate (i.e., 8-bromo cyclic GMP, Sigma-Aldrich Co., St. Louis, Mo.) was utilized. 8-bromo cyclic GMP is a cell-permeable analog of cyclic GMP. 8-bromo cyclic GMP effects on DNA synthesis were investigated in dose-response curves with cyclic GMP concentrations ranging from 100 pM to 5 mM.
Prostaglandin E2, i.e., (5Z, 11α, 13E, 15S)-11, 15-dihydro-9-oxo-prosta-5, 13-dien-I-oic acid was purchased from Sigma-Aldrich, St. Louis, Mo. […]

Test [3] has as its system hepatoblastoma cells. As to conditions: cited from earlier work.
Test [4] deals with rat mesangial cells. The following applies: cited from earlier work.
The test system of test [5] is pancreatic adenocarcinoma cell line, ATCC number CRL-2119. Nature of the test: Number of pancreatic adenocarcinoma cells in culture, counted by microscope. The following applies: for number of cancer cells compared to controls: 48 hours. The test is classed as cell-based, human. The text has this: The pancreatic adenocarcinoma cell line, ATCC number CRL-2119, was derived in 1985 from a nude mouse xenograft of a primary tumor removed from the head of the pancreas. It is a moderate to well-differentiated pancreatic adenocarcinoma of ductal origin. These pancreatic adenocarcinoma cells are stimulated to proliferate in culture by insulin, insulin-like growth factor I (IGF-I), epidermal growth factor (EGF), and transforming growth factor alpha (TGF alpha). These adenocarcinoma cells contain significant concentrations of tumor-associated antigens CEA, CA 125, and CA 19-9. In culture, these adenocarcinoma cells form monolayers of morphologically heterogeneous polar epithelial cells. These cells are tumorgenic in that they form tumors in athymic nude mice at the site of inoculation that are histologically similar to the tumor of origin.
Propagation of these cells was in Dulbecco's modified Eagle's plus Ham's F12-A 1:1 mixture of Dulbecco's modified Eagle's medium and Ham's F12 medium containing 1.2 g/L of sodium bicarbonate (Sigma Chemical Co., St. Louis, Mo.) supplemented with 15 mM HEPES and fetal bovine serum, 10%, at a temperature of 37° C. as recommended by the ATCC.
These pancreatic adenocarcinoma cells were subcultured (passaged) by removing spent (i.e., old) medium by aspiration, and then adding calcium and magnesium free Hank's Balanced Salt Solution with 0.25% trypsin and 0.03% ethylenediaminetetracetic acid (EDTA). The culture was allowed to sit at room temperature for 2 to 5 minutes. Fresh medium was added to the adenocarcinoma cells which were dispensed into new flasks, with subculture every 6 to 8 days. The growth medium was changed every three days.
After these adenocarcinoma cells were subcultured for 24 hours, they were then seeded to coverslips and transferred to 24 microwell plates (NUCOLON, Roskilde Denmark), with 1 ml Dulbeco Modified Eagle's (DME)/[…] nutrient culture media (Sigma Chemical Co.) with 10% fetal bovine serum (Atlanta Biologicals, Norcross, Ga.). After 24 hours, wells were washed twice with Dulbecco's Modified Eagle's/Ham's F12 with 0.1% bovine serum albumin (Sigma-Aldrich, St. Louis, Mo.) and allowed to incubate in this serum free medium for an additional 24 hour period of serum deprivation. Serum-free media was utilized to remove all variables (EGF, etc.) present in serum in order that interpretation of any data obtained would be straightforward. After 24 hours of serum deprivation, media volume was reduced to 250 μL per well with or without the respective peptide hormones at their 1 μM concentrations (1% of this volume). The adenocarcinoma cells were then incubated for various periods of time (24, 48, 72, and 96 hours).At the end of the above time periods, hematoxylin was added for 5 minutes to make the cells more visible for counting, and then they were washed for 5 minutes. The coverslips were then placed face down on microscope slides with the addition of 6 μl of histologic grade phosphate buffered saline (PBS)/I-glycine that had been filtered immediately before use with a 0.22 μm polyethersulfone, nonpyrogenic, sterile, low protein binding membrane (Corning 43117, Corning Inc., Corning, N.Y.). The number of adenocarcinoma cells were then counted with a cell counter evaluating ten fields of the microscope slide at 40× along the X-axis with an Olympus BH-2 microscope (Atlanta, Ga.). This evaluation was repeated on six separate occasions with the number of adenocarcinoma cells reflecting 60 observations for each group, i.e., 60 observations for controls and 60 observations for each of the four groups with respective peptide hormones. The only variable in this investigation was whether one of the four peptide hormones was added to the pancreatic adenocarcinoma cells. Otherwise all the adenocarcinoma cells were treated the same, i.e., with same culture medium, time of incubation, and processing of cells for the various investigations. […]

Consider `O=c1[nH]cc(F)c(=O)[nH]1` [5-FU, 5-fluorouracil], for which, in test [1], the “decrease in pancreatic adenocarcinoma cells in culture” value is 16%.

Take `Nc1nc2c(nc(Br)n2[C@@H]2O[C@@H]3COP(=O)(O)O[C@H]3[C@H]2O)c(=O)[nH]1` [8-bromo cyclic GMP, 8-bromoguanosine 3′,5′-cyclic monophosphate]: the “decrease in DNA synthesis” value in test [2] (1 nM) is recorded as 25%; in test [2] (1 μM), 34%; in test [2] (100 μM), 39%; in test [2] (1 mM), 42%; in test [2] (3 mM) it was 46%; in test [2] (5 mM) it was 51%.

Turning to `CC[C@H](C)[C@@H]1NC(=O)[C@H](CCCNC(=N)N)NC(=O)[C@H](CC(=O)O)NC(=O)[C@H](CCSC)NC(=O)[C@H](CCCNC(=N)N)NC(=O)CNC(=O)CNC(=O)[C@H](Cc2ccccc2)NC(=O)[C@@H](NC(=O)[C@H](CO)NC(=O)[C@H](CO)NC(=O)[C@H](CCCNC(=N)N)NC(=O)[C@H](CCCNC(=N)N)NC(=O)[C@H](CC(C)C)NC(=O)[C@@H](N)CO)CSSC[C@@H](C(=O)N[C@@H](CC(N)=O)C(=O)N[C@@H](CO)C(=O)N[C@@H](Cc2ccccc2)C(=O)N[C@@H](CCCNC(=N)N)C(=O)N[C@@H](Cc2ccc(O)cc2)C(=O)O)NC(=O)CNC(=O)[C@H](CC(C)C)NC(=O)CNC(=O)[C@H](CO)NC(=O)[C@H](CCC(N)=O)NC(=O)[C@H](C)NC(=O)CNC1=O` [ANP], the “inhibition of DNA synthesis” value in test [2] (1 μM) was 83%; in test [3] it was 22%; in test [4] it was 47% to 60. Moreover, the “number of cancer cells compared to controls” value in test [5] (1 μM) amounted to 33%.

Take `CCCCC[C@H](O)/C=C/[C@H]1[C@H](O)CC(=O)[C@@H]1C/C=C\CCCC(=O)O` [prostaglandin E2, (5Z, 11α, 13E, 15S)-11, 15-dihydro-9-oxo-prosta-5, 13-dien-I-oic acid]: the “decrease in DNA synthesis” value in test [2] (10 pg/ml) worked out at 4%; in test [2] (1 ng/ml) it was 5%; in test [2] (10 ng/ml), 5%; in test [2] (0.1 μg/ml), 9%; in test [2] (1 μg/ml), 11%; in test [2] (10 μg/ml), 14%. Further, the “decrease in DNA synthesis” value in test [2] (1 mg/ml) was 23%.

Consider “LANP: first 30 amino acids from the N-terminal end of the ANP prohormone (NPMYNAVSNADLMDFKNLLDHLEEKMPLED; long-acting natriuretic peptide; UniProt P01160 26-55, looked up, fragment)”, for which the “inhibition of DNA synthesis” value in test [2] (1 μM) is recorded as 84%. Also, the “decrease in the number of adenocarcinoma cells” value in test [5] (1 μM, 24 hours, vs untreated cells) is 47%; in test [5] (1 μM, 72 hours, vs untreated cells) it was 47%; in test [5] (1 μM, 96 hours, vs untreated cells), 48%; in test [5] (time not stated), about 50%. Also, the “number of adenocarcinoma cells” value in test [5] (1 μM, 24 hours, untreated 183.4+/−8) is given as 97.7+/−3 cells per high powered field. Moreover, the “number of cancer cells compared to controls” value in test [5] (1 μM) was determined as 43%.

Values taken from US6943147B2, “Cancer treatment using proANP peptides” (University of South Florida, priority 2003, dated 2005).
